Laboratory results published in patent publication US20100021505A1, “Composition and method to prevent or reduce diarrhea and steatorrhea in HIV patients” (priority 2008, published 2010).
“Also recorded” adds a separate entry of the source.

Tests used:
HIV patients = conditions: Kakuda et al. 1998; cited from earlier work
pancrelipase [1] = target: T1, pancrelipase (Sus scrofa, UniProt P00591); assay: Lipase assay (USP titrimetric): inhibition of pancrelipase by HAART drugs and excipients; format: biochemical
T1 sequence (P00591 1-450): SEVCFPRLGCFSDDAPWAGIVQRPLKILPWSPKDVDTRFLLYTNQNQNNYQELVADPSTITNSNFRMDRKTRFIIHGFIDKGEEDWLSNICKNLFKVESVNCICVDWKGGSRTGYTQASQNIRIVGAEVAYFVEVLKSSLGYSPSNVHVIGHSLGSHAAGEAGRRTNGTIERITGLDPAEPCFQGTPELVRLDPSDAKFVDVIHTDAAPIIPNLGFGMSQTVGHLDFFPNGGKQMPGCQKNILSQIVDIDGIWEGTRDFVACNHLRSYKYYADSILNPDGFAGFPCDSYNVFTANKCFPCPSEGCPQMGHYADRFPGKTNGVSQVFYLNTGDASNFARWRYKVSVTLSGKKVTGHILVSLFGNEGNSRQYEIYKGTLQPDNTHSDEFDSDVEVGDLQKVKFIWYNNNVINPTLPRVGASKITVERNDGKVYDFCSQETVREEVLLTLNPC
Procedure: The enzyme sources consisted of USP Reference Standard Pancrelipase, USP Reference Standard Trypsin, colipase (Sigma Chemical Co.), and enterokinase (ICN Biochemicals). Appropriate concentrations of enzyme reference standard were prepared in cold distilled water, as described in USP reference assay procedures. The Infectious Disease Clinic in Somerville, N.J. provided the HAART medications. Pure drugs could not be obtained so commercial drug preparations were used in the assays.
One unit (U) of lipase activity is defined as the amount of enzyme that liberates one μequivalent of free fatty acid from triglycerides per minute at pH 9.0 and 37° C. Lipase activity (U/mg) was determined by a lipase specific titrimetric assay described in the United States Pharmacopeia (USP), Volume XXII. In brief, the substrate consists of 10% olive oil in acacia solution, 40-mg/mL sodium taurocholate, 0.075M calcium chloride, 0.05M Tris in 3.0M NaCl buffer solution (pH 7.5) and distilled water. The emulsified substrate is incubated at 37° C. and brought to pH 9.0 with 0.02N NaOH. At time zero, 1.0 mL of enzyme solution was added. A pH stat autotitrator was used to maintain pH 9.0 and the volume of 0.02 N NaOH dispensed per unit time was recorded for five (5) minutes. From the initial slope of this plot, lipase activity was calculated using the following equation: […]

pancrelipase [2] = assay: Recovery of pancrelipase activity after inhibition, by addition of excess lipase; format: biochemical
Procedure: The above procedure was used to monitor pancrelipase activity with the exception that drug was not preincubated with the substrate. At time zero 1.0 mL of pancrelipase was added to initiate the reaction. At five (5) minutes, 1.0 mL of HAART drug solution was added to the reaction mixture to cause inhibition of lipase activity. At twelve (12) minutes an additional 1.0 mL of pancrelipase was added to the reaction mixture to overcome HAART inhibition. The reaction was monitored for twenty (20) minutes.

pancrelipase [3] = assay: Pancrelipase reactivation by colipase; format: biochemical; conditions: for % Lipase Activity with Colipase: colipase 5 μg/mL; for effect of added colipase on the inhibition of pancrelipase (in words): excess colipase added to reaction mixture
Procedure: In brief, the above lipase assay procedure was used with the following variation: colipase solution replaced the distilled water so the concentration of colipase in the final reaction mixture was 5 μg/mL.

For `Cc1c(O)cccc1C(=O)N[C@@H](CSc1ccccc1)[C@H](O)CN1C[C@H]2CCCC[C@H]2C[C@H]1C(=O)NC(C)(C)C` [nelfinavir, Nelfinavir], which “HIV patients experiencing diarrhea” value (HIV patients) is on record?
Its value is 12-20%.

Which “inhibition of pancrelipase (in words)” value (pancrelipase [1]) does the source give for “D-α-tocopheryl polyethylene glycol 1000 succinate [TPGS]” here?
Its value is “significant inhibition; also recorded: significantly inhibited”.

And the “% Pancrelipase Activity” value (pancrelipase [2]; after addition of drug solution at 5 minutes, before excess lipase)?
Its value is 55%.

And the “% Reactivation of Pancrelipase” value (pancrelipase [2]; after additional 1.0 mL of pancrelipase at 12 minutes)?
The value was 98%.

What about the “% Lipase Activity No Colipase” value (pancrelipase [3]; Drug Conc. 10.0 mg/mL) of the same molecule?
Its value is 21%.

What about the “% Lipase Activity with Colipase” value (pancrelipase [3]; Drug Conc. 10.0 mg/mL) of the same molecule?
The value was 79%.

And the “effect of added colipase on the inhibition of pancrelipase (in words)” value (pancrelipase [3])?
The value was “Pancrelipase inhibition was reversed; also recorded: restored pancrelipase activity”.

Which results are given for `CCCCCCCCCCC[C@@H](C[C@@H]1OC(=O)[C@H]1CCCCCC)OC(=O)[C@H](CC(C)C)NC=O` [ORLISTAT ®, reference compound]?
% Lipase Activity No Colipase (pancrelipase [3]; Drug Conc. 0.002 mg/mL): 37%; % Lipase Activity with Colipase (pancrelipase [3]; Drug Conc. 0.002 mg/mL): 29%; effect of added colipase on the inhibition of pancrelipase (in words) (pancrelipase [3]): no effect
